# Results: US5385917A, “Carboxylic acid derivatives” (Mitsubishi Kasei Corporation, priority 1992, dated 1995)
# Target: T1, Human steroid 5α-reductase (Homo sapiens, UniProt P31213)
# T1 construct: The suspension was used as the source of 5α-reductase; from tissue; host or cells: frozen human prostate, whole homogenate in 0.1 M phosphate buffer pH 5.5
# T1 sequence (P31213 1-254): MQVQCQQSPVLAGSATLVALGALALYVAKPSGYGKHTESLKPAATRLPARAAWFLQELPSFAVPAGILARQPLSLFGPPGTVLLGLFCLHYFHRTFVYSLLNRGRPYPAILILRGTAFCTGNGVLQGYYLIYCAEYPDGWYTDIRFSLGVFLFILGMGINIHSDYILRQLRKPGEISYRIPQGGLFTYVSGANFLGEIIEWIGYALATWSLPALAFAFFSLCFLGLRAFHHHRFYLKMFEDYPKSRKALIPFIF
# Experiment: Human steroid 5α-reductase inhibiting effect using human prostatic tissue
# Format: biochemical
# Details: human prostate homogenate, pH 5.5, 50 nM [3H]testosterone, NADPH, 37° C., 10 min; Table 5
# Description: Human steroid 5α-reductase inhibiting effect was examined on the compounds of the present invention using human prostatic tissue.
# Frozen human prostate was thawed on ice and minced into small pieces (~5mm^3). The minced tissue was homogenized with a Polytron homogenizer (Kinematica, Switzerland) in 40 vol. of 0.1M phosphate buffer at pH 5.5. The suspension was used as the source of 5α-reductase.
# For this test, DMSO solutions containing various amount of the inhibitor were employed.
# Each reaction solution was incubated at 37° C. for 10 minutes and ethyl acetate (2 ml) chilled with ice was added for stopping the reaction. The organic layer was transferred to another test tube and evaporated to dryness under nitrogen. Each 50 μg of non radioactive testosterone, DHT, estradiol, androstenedione and androstandiol was added to the residue, and the wall of each test tube was washed with ethyl acetate (0.1 ml). The content of the tube was evaporated again and the residue was dissolved in chloroform (50 μl) and then applied to Whatman LK60DF silica plates (Whatman, N.J.), developing in chloroform:methanol (50:1). The bands of the substrates and products were identified by fluorescence (254 nm) and iodine, and the relevant silica gel was collected by scraping, mixed with toluene based liquid sincilator, and the radioactivity was counted. The radioactivities of DHT and androstandiol were combined for the calculation of 5α-reductase activity. […] The radioactivity for the control group was postulated as 100%.
# IC50 were calculated from the data obtained from the above experiments.
row,SMILES,IC50
1,"CC12CCC(C(=O)O)=CC1=CCCC2NC(=O)c1cccc(OC2CCCC2)c1 (centres unmarked) [Example 17, 5-(3'-cyclopentyloxybenzoylamino)-10-methyl-Δ^1(2),8(9) -octalin-2-carboxylic acid]",180 nM
2,"CC12CCC(C(=O)O)=CC1=CCCC2NC(=O)c1cccc(OC2CCCCCCC2)c1 (centres unmarked) [Example 20, 5-(3'-cyclooctyloxybenzoylamino)-10-methyl-Δ^1(2),8(9) -octalin-2-carboxylic acid]",270 nM
3,"CC(C)c1cccc(Oc2cccc(C(=O)NC3CCC=C4C=C(C(=O)O)CCC43C)c2)c1 (centres unmarked) [Example 5, 5-[3'-(m-isopropylphenoxy)benzoylamino]-10-methyl-Δ^1(2),8(9) -octalin-2-carboxylic acid]",460 nM
4,"C[C@]12CCC(C(=O)O)=CC1=CCC[C@@H]2NC(=O)c1cccc(OC2CCCCCC2)c1 [Example 46, (5S,10S)-5-(3'-cycloheptyloxybenzoylamino)-10-methyl-Δ^1(2),8(9)-octalin-2-carboxylic acid]",300 nM
5,"CC12CCC(C(=O)O)=CC1=CCCC2NC(=O)c1cccc(O[C@H]2CC[C@H](C(C)(C)C)CC2)c1 (stereo partly drawn) [Example 23, 5-[3-(4-trans-t-butylcyclohexyloxy)benzoylamino]-10-methyl-Δ^1(2),8(9) -octalin-2-carboxylic acid]",300 nM
6,"C[C@]12CCC(C(=O)O)=CC1=CC[C@@H]2NC(=O)c1cccc(OC(C2CC2)C2CC2)c1 [Example 54, (1S,8S)-1-[3'-(dicyclopropylmethyloxy)benzoylamino]-8a-methyl-1,2,6,7-tetrahydroindene-5-carboxylic acid]",160 nM
7,"CC(C)C(Oc1cccc(C(=O)N[C@H]2CCC=C3C=C(C(=O)O)CC[C@@]32C)c1)C(C)C [Example 48, (5S,10S)-5-[3'-(2"",4""-dimethyl-3""-pentyloxy)benzoylamino]-10-methyl-Δ^1(2),8(9) -octalin-2-carboxylic acid]",65 nM
8,"CC12CCC(C(=O)O)=CC1=CCCC2NC(=O)c1cccc(OCC2CCCCC2)c1 (centres unmarked) [Example 31, 5-(3'-cyclohexylmethoxybenzoylamino)-10-methyl-Δ^1(2),8(9) -octalin-2-carboxylic acid]",410 nM
9,"CC12CCC(C(=O)O)=CC1=CCCC2NC(=O)c1ccc2c(c1)OC1(CCCCC1)O2 (centres unmarked) [Example 42, 5-(3',4'-cyclohexylidenedioxybenzoylamino)-10-methyl-Δ^1(2),8(9)-octalin-2-carboxylic acid]",770 nM
10,"C[C@@]12CCC(C(=O)O)=CC1=CCC[C@H]2NC(=O)c1cccc(OC2CCCCCC2)c1 [Example 45, (5R,10R)-5-(3'-cycloheptyloxybenzoylamino)-10-methyl-Δ^1(2),8(9)-octalin-2-carboxylic acid]",610 nM
11,"CC12CCC(C(=O)O)=CC1=CCCC2NC(=O)c1cccc(CC2CCCCC2)c1 (centres unmarked) [Example 35, 5-(3'-cyclohexylmethylbenzoylamino)-10-methyl-Δ^1(2),8(9) -octalin-2-carboxylic acid]",160 nM
12,"CC(C)Cc1ccc(Oc2cccc(C(=O)NC3CCC=C4C=C(C(=O)O)CCC43C)c2)cc1 (centres unmarked) [Example 9, 5-{3""-[p-(2'-methylpropyl]phenoxy)benzoylamino}-10-methyl-Δ^1(2),8(9) -octalin-2-carboxylic acid]",520 nM
13,"Cc1cc(C)cc(Oc2cccc(C(=O)NC3CCC=C4C=C(C(=O)O)CCC43C)c2)c1 (centres unmarked) [Example 13, 5-[3'-(3,5-dimethylphenoxy)benzoylamino]-10-methyl-Δ^1(2),8(9) -octalin-2-carboxylic acid]",660 nM
14,"CC12CCC(C(=O)O)=CC1=CCCC2NC(=O)c1cccc(Oc2ccccc2)c1 (centres unmarked) [Example 2, 5-(3'-phenoxybenzoylamino)-10-methyl-Δ^1(2),8(9) -octalin-2-carboxylic acid]",830 nM
15,"CC(C)c1ccc(Oc2cccc(C(=O)NC3CCC=C4C=C(C(=O)O)CCC43C)c2)cc1 (centres unmarked) [Example 4, 5-[3'-(p-isopropylphenoxy)benzoylamino]-10-methyl-Δ^1(2),8(9) -octalin-2-carboxylic acid]",810 nM
16,CC12CCC(C(=O)O)=CC1=CCCC2NC(=O)c1ccc(Oc2ccccc2)cc1 (centres unmarked) [Example 1],3300 nM
17,"CC(C)c1ccc(Oc2cc(Br)cc(C(=O)NC3CCC=C4C=C(C(=O)O)CCC43C)c2)cc1 (centres unmarked) [Example 37, 5-[3-bromo-5-(p-isopropylphenoxy)benzoylamino]-10-methyl-Δ^1(2),8(9) -octalin-2-carboxylic acid]",300 nM
18,"CC12CCC(C(=O)O)=CC1=CCCC2NC(=O)c1cccc(Oc2ccc(C3CCCCC3)cc2)c1 (centres unmarked) [Example 11, 5-[3'-(p-cyclohexylphenoxy)benzoylamino]-10-methyl-Δ^1(2),8(9) -octalin-2-carboxylic acid]",250 nM
19,"Cc1ccc(Oc2cccc(C(=O)NC3CCC=C4C=C(C(=O)O)CCC43C)c2)cc1 (centres unmarked) [Example 7, 5-[3'-(p-tolyloxy)benzoylamino]-10-methyl-Δ^1(2),8(9) -octalin-2-carboxylic acid]",210 nM
20,"C[C@]12CCC(C(=O)O)=CC1=CCC[C@@H]2NC(=O)c1cccc(OC(C2CC2)C2CC2)c1 [Example 47, (5S,10S)-5-(3'-dicyclopropylmethoxybenzoylamino)-10-methyl-Δ^1(2),8(9) -octalin-2-carboxylic acid]",160 nM
21,"CC12CCC(C(=O)O)=CC1=CCCC2NC(=O)c1cccc(OCc2ccccc2)c1 (centres unmarked) [Example 15, 5-(3'-benzyloxy-benzoylamino)-10-methyl-Δ^1(2),8(9) -octalin-2-carboxylic acid]",4210 nM
22,"CC(C)(C)c1cc(C(=O)NC2CCC=C3C=C(C(=O)O)CCC32C)cc(C(C)(C)C)c1 (centres unmarked) [Example 43, 5-(3',5'-di-t-butylbenzoylamino)-10-methyl-Δ^1(2),8(9) -octalin-2-carboxylic acid]",230 nM
23,"CC12CCC(C(=O)O)=CC1=CCCC2NC(=O)c1cccc(Oc2ccc3c(c2)CCCC3)c1 (centres unmarked) [Example 14, 5-[3'-(5"",6"",7"",8""-tetrahydro-2""-naphtoxy)benzoylamino]-10-methyl-Δ^1(2),8(9) -octalin-2-carboxylic acid]",440 nM
24,"CC(C)C1CCC(Oc2cccc(C(=O)NC3CCC=C4C=C(C(=O)O)CCC43C)c2)CC1 (centres unmarked) [Example 22, 5-[3-(4-isopropylcyclohexyloxy)benzoylamino]-10-methyl-Δ^1(2),8(9) -octalin-2-carboxylic acid]",520 nM
25,"Cc1c(OC2CCCCCC2)cccc1C(=O)NC1CCC=C2C=C(C(=O)O)CCC21C (centres unmarked) [Example 51, 5-(3'-cycloheptyloxy-2-methylbenzoylamino)-10-methyl -Δ^1(2),8(9) -octalin-2-carboxylic acid]",910 nM
26,"COc1ccc(C(=O)NC2CCC=C3C=C(C(=O)O)CCC32C)cc1OC1CCCCCC1 (centres unmarked) [Example 39, 5-(3'-cycloheptyloxy-4'-methoxybenzoylamino)-10-methyl-Δ^1(2),8(9) -octalin-2-carboxylic acid]",390 nM
